The text below walks through data of PubChem BioAssay (NCI).

Some test systems named below: 786-0 renal; A498 renal; CAKI-1 renal; HCT-116 colon; HL-60(TB) leukemia; NCI/ADR-RES ovarian; OVCAR-8 ovarian; RPMI-8226 leukemia; SK-OV-3 ovarian; UACC-62 melanoma.
What all share (assay): NCI tumour cell line growth inhibition, 48 h

Molecules are shown by their SMILES.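 Results reflect a 48-hour exposure of cells in 96-well plates to compound at five concentrations. GI50 marks 50% less growth. The concentration for full growth arrest is given as TGI.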

Consider `CCOC(=O)c1cc2cc(OCc3ccccc3)ccc2[nH]1`, for which the GI50 with 786-0 renal was greater than 100 µM; in the test on A498 renal, greater than 100 µM; in the test on CAKI-1 renal, greater than 100 µM; in the test on HCT-116 colon, greater than 100 µM; with HL-60(TB) leukemia it was 12.2 µM; with NCI/ADR-RES ovarian, greater than 100 µM. In addition, the GI50 in the test with OVCAR-8 ovarian, in the test with RPMI-8226 leukemia, with SK-OV-3 ovarian and in the test with UACC-62 melanoma was greater than 100 µM in each case. For the same compound, the TGI was greater than 100 µM with 786-0 renal; greater than 100 µM in the test with A498 renal; greater than 100 µM in the test on CAKI-1 renal; greater than 100 µM in the test on HCT-116 colon; 66.7 µM with HL-60(TB) leukemia; greater than 100 µM in the test with NCI/ADR-RES ovarian. The TGI with OVCAR-8 ovarian, in the test with RPMI-8226 leukemia, with SK-OV-3 ovarian and in the test on UACC-62 melanoma was greater than 100 µM in each case.

For the compound `Cc1ccc(C(=O)N2C/C(=C/c3ccccc3)C(=O)/C(=C/c3ccccc3)C2)cc1`, the GI50 in the test on 786-0 renal was 3.52 µM; in the test on A498 renal, greater than 65 µM; with CAKI-1 renal it was greater than 57.5 µM; in the test on HCT-116 colon, 0.226 µM; with HL-60(TB) leukemia it was 18.8 µM; in the test with NCI/ADR-RES ovarian, 27.7 µM. Moreover, the GI50 in the test on OVCAR-8 ovarian was 5.09 µM; with RPMI-8226 leukemia, 0.131 µM; in the test with SK-OV-3 ovarian it was 8.64 µM; in the test with UACC-62 melanoma, 4.49 µM. Also, the TGI with 786-0 renal was 15.2 µM; in the test with A498 renal it was greater than 100 µM; with CAKI-1 renal, greater than 100 µM; in the test on HCT-116 colon, 0.548 µM; in the test with HL-60(TB) leukemia, greater than 100 µM; with NCI/ADR-RES ovarian, greater than 100 µM. Further, the TGI with OVCAR-8 ovarian was greater than 100 µM; with RPMI-8226 leukemia, 0.971 µM; with SK-OV-3 ovarian, greater than 100 µM; in the test on UACC-62 melanoma, 25.8 µM.

For `C=CC[PH+](c1ccccc1)c1ccccc1.C=CC[PH+](c1ccccc1)c1ccccc1.[Pt+2].[S-]c1ncccn1.[S-]c1ncccn1`, the GI50 is 18.8 µM in the test with 786-0 renal; 11.5 µM with A498 renal; 7.66 µM in the test on CAKI-1 renal; 2.17 µM with HCT-116 colon; 7.95 µM with HL-60(TB) leukemia; 22.9 µM with NCI/ADR-RES ovarian. In addition, the GI50 with OVCAR-8 ovarian is 4.44 µM; with RPMI-8226 leukemia, 3.16 µM; in the test with SK-OV-3 ovarian it was greater than 100 µM; in the test with UACC-62 melanoma, 8.06 µM. The TGI with 786-0 renal was 48.1 µM; in the test on A498 renal, greater than 100 µM; with CAKI-1 renal it was 29.2 µM; with HCT-116 colon, 4.88 µM; in the test on HL-60(TB) leukemia, 90.2 µM; in the test on NCI/ADR-RES ovarian, greater than 100 µM. Besides, the TGI with OVCAR-8 ovarian was greater than 100 µM; in the test with RPMI-8226 leukemia, 17.4 µM; in the test with SK-OV-3 ovarian, greater than 100 µM; in the test with UACC-62 melanoma, 24.8 µM.

For the compound `CCC1=C(c2ccc(OC)cc2)CC[C@]2(CCNC2=O)[C@@H]1C`, the TGI with 786-0 renal is greater than 100 µM; with A498 renal, greater than 100 µM; in the test on CAKI-1 renal, greater than 89.7 µM; in the test on HCT-116 colon, 52.6 µM; with HL-60(TB) leukemia, 69.2 µM; in the test on NCI/ADR-RES ovarian, greater than 92.2 µM. The TGI in the test on OVCAR-8 ovarian was greater than 100 µM; in the test on RPMI-8226 leukemia it was 45.7 µM; with SK-OV-3 ovarian it was 97.1 µM; with UACC-62 melanoma, 67.1 µM.

For `CCN(CC)Cc1cc(Nc2cc(C(F)(F)F)c(C#N)c3nc4ccccc4n23)ccc1O`, the GI50 is 2.57 µM with 786-0 renal; 1.44 µM in the test with A498 renal; 1.77 µM with CAKI-1 renal; 1.6 µM in the test on HCT-116 colon; 2.96 µM with HL-60(TB) leukemia; 2.64 µM in the test on NCI/ADR-RES ovarian. The GI50 is 2.68 µM in the test with OVCAR-8 ovarian, 0.812 µM with RPMI-8226 leukemia, 1.98 µM with SK-OV-3 ovarian and 1.22 µM in the test on UACC-62 melanoma. Also, the TGI was found to be 9.98 µM in the test with 786-0 renal; 5.85 µM in the test with A498 renal; 11.2 µM in the test on CAKI-1 renal; 4.45 µM with HCT-116 colon; 8.37 µM in the test on HL-60(TB) leukemia; 15.9 µM in the test with NCI/ADR-RES ovarian. Moreover, the TGI in the test with OVCAR-8 ovarian was 12.6 µM; in the test on RPMI-8226 leukemia it was 4.96 µM; in the test with SK-OV-3 ovarian, 8.59 µM; in the test with UACC-62 melanoma, 3.96 µM.

Regarding `COC(=O)C1=Nc2ccc(F)cc2/C1=C/c1sc(=S)[nH]c1O`, the GI50 with 786-0 renal is 0.122 µM; in the test on A498 renal it was 0.202 µM; with CAKI-1 renal, 0.097 µM; in the test with HCT-116 colon it was 0.0468 µM; in the test on HL-60(TB) leukemia, 0.263 µM; in the test with NCI/ADR-RES ovarian, 0.0704 µM. Also, the GI50 is 0.202 µM with OVCAR-8 ovarian, 0.305 µM with RPMI-8226 leukemia, 0.513 µM with SK-OV-3 ovarian and 0.248 µM in the test on UACC-62 melanoma. The TGI was 15.1 µM in the test with 786-0 renal; 0.942 µM with A498 renal; 7 µM with CAKI-1 renal; 16.7 µM in the test on HCT-116 colon; 11.5 µM in the test with NCI/ADR-RES ovarian; 37.7 µM in the test on OVCAR-8 ovarian. For the same compound, the TGI in the test on RPMI-8226 leukemia is 3.92 µM; in the test on SK-OV-3 ovarian, 31.3 µM; with UACC-62 melanoma it was greater than 47 µM.
